Results as given in US8012963B2, “3,4-dihydro-2H-benzo[1,4]oxazine and thiazine derivatives as CETP inhibitors” (Janssen Pharmaceutica N.V., priority 2006, dated 2011).
Values joined by “and” are separate entries in the source; they are usually repeats but may differ in a detail not shown here. Equal entries are not always repeated.

Molecular target: T1, CETP (Homo sapiens, UniProt P11597)
T1 construct: from tissue; host or cells: human plasma from normal volunteers
T1 sequence (P11597 18-493): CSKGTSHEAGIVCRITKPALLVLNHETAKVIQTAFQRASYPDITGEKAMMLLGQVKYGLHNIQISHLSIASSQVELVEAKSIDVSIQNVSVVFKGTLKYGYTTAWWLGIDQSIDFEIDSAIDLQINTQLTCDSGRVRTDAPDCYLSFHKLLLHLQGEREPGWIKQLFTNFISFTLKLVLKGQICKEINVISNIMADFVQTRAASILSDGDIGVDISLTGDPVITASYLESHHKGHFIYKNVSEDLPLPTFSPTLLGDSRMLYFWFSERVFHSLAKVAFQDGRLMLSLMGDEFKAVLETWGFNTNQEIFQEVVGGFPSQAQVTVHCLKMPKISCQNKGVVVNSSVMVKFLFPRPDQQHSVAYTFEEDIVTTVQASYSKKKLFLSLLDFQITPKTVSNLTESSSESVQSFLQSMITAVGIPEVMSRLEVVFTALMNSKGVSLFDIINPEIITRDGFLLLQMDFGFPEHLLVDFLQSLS
Assay: CETP in vitro assay ([3H]CE-HDL transfer, Amersham kit TRKQ7005; modified protocol in human plasma)
Format: biochemical
Settings: multiple values = multiple measurements; for inhibition at 1 µM / % Inhibition @ 1 μM: 1 μM compound
Method: The CETP inhibitory activity of the compounds was determined using a commercially available kit from Amersham Biosciences (Catalog #TRKQ7005).
For the measurement of inhibitory activity in human plasma, a modified protocol (Connolly, D. T. et al., Biochemistry, 39 13870-13879, 2000) was used. Briefly, 80 μl of human plasma (obtained from normal volunteers), approximately 25 μg/ml (200) of [^3H]CE-HDL (Amersham Biosciences from kit TRKQ7005) and 1 μl of compound dissolved in DMSO was incubated for at least 4 hrs at 37° C. and non-specific transfer was determined by incubating a corresponding plate at 4° C. (blank). After the incubation period, 100 of a solution of 1% Dextralip 50/0.5M MgCl2, pH 7.4 was added, vortexed and incubated at room temperature for 10 min. The plate was then centrifuged for 30 min at 10° C. at 3000 rpm in a Sorvall RT6000B centrifuge. Fifty microliters of the supernatant was transferred to a Picoplate (Packard) containing 100 μl of Microscint 40 (Perkin Elmer) and mixed for 30 min using a plate mixer. The radioactivity was counted using a TopCount (Perkin Elmer) and the % control was determined in the samples using the following formula: % transfer relative to vehicle controls (% control)=[cpm blank-cpm test]/cpm blank/cpm control]×100. IC50s were calculated from plots of the % control versus compound concentration.
A variety of example compounds have been made and tested, with a range of in vitro results. Below, in Table 2, are representative compounds and the corresponding data; in some cases, where multiple IC50's are shown, multiple measurements were taken. Naturally, different compounds in Formula (I), (Ia), (Ib) and (Ic) may have not activities identical to any one compound below.

Compound `CC1(C)OC[C@H](CN2c3cccc(-c4cccc(OC(F)(F)F)c4)c3OC[C@@H]2c2cccc(OC(F)(F)C(F)F)c2)O1` [Compound 45, 2H-1,4-Benzoxazine, 4-[[(4S)-2,2-dimethyl-1,3-dioxolan-4-yl]methyl]-3,4-dihydro-3-[3-(1,1,2,2-tetrafluoroethoxy)phenyl]-8-[3-(trifluoromethoxy)phenyl]-, (3S)—] has an inhibition at 1 µM of 25%.

`COc1ccsc1C1COc2c(-c3cccc(OC(F)(F)F)c3)cccc2N1CC(O)C(F)(F)F` (stereo not drawn) [Compound 60, 1,1,1-Trifluoro-3-[3-(3-methoxy-thiophen-2-yl)-8-(3-trifluoromethoxy-phenyl)-2,3-dihydro-benzo[1,4]oxazin-4-yl]-propan-2-ol] was tested, and the “% Inhibition @ 1 μM” value was 0%.

With `CN(C)CCN1c2cccc(-c3cccc(OC(F)(F)F)c3)c2OCC1c1cccc(OC(F)(F)C(F)F)c1` (stereo not drawn) [Compound 28, Dimethyl-{2-[3-[3-(1,1,2,2-tetrafluoro-ethoxy)-phenyl]-8-(3-trifluoromethoxy-phenyl)-2,3-dihydro-benzo[1,4]oxazin-4-yl]-ethyl}-amine] the inhibition at 1 µM was 9%.

`O[C@H](CN1c2cccc(-c3cc(F)c(F)c(F)c3)c2OC[C@@H]1c1cccc(OC(F)(F)F)c1)C(F)(F)F` [Compound 83, 4H-1,4-Benzoxazine-4-ethanol, 2,3-dihydro-3-[3-(trifluoromethoxy)phenyl]-8-[3,4,5-(trifluoro)phenyl]-α-(trifluoromethyl)-, (3S,αR)—] gave an inhibition at 1 µM of 29%.

With `CC(C)(C)[Si](C)(C)OCCN1c2cccc(-c3cccc(OC(F)(F)F)c3)c2OCC1c1cccc(OC(F)(F)C(F)F)c1` (stereo not drawn) [Compound 22, 4-[2-(tert-Butyl-dimethyl-silanyloxy)-ethyl]-3-[3-(1,1,2,2-tetrafluoro-ethoxy)-phenyl]-8-(3-trifluoromethoxy-phenyl)-3,4-dihydro-2H-benzo[1,4]oxazine] the inhibition at 1 µM was 13%.

`FC(F)C(F)(F)Oc1cccc(C2COc3c(-c4cccc(OC(F)(F)F)c4)cccc3N2CCN2CCNCC2)c1` (stereo not drawn) [Compound 30, 4-(2-piperazin-1-yl-ethyl)-3-[3-(1,1,2,2-tetrafluoro-ethoxy)-phenyl]-8-(3-trifluoromethoxy-phenyl)-3,4-dihydro-2H-benzo[1,4]oxazine] gave an inhibition at 1 µM of 0%.

`OC(CF)CN1c2cccc(-c3cccc(OC(F)(F)F)c3)c2OC[C@@H]1c1cccc(OC(F)(F)C(F)F)c1` (stereo in doubt) [Compound 74, 4H-1,4-Benzoxazine-4-ethanol, 2,3-dihydro-α-fluoromethyl-3-[3-(1,1,2,2-tetrafluoroethoxy)phenyl]-8-[3-(trifluoromethoxy)phenyl]-, (3S,αR)—] showed an inhibition at 1 µM of 77% and an IC50 of 14 nM.

In the case of `COc1cccc(C2COc3c(-c4cccc(OC(F)(F)F)c4)cccc3N2CC(O)C(F)(F)F)c1` (stereo not drawn) [Compound 99, 1,1,1-Trifluoro-3-[3-(3-methoxy-phenyl)-8-(3-trifluoromethoxy-phenyl)-2,3-dihydro-benzo[1,4]oxazin-4-yl]-propan-2-ol], the “% Inhibition @ 1 μM” value is reported as 29%.

In the case of `OC(CN1c2cccc(-c3cccc(OC(F)(F)F)c3)c2OCC1c1cccc(C(F)(F)F)c1)C(F)(F)F` (stereo not drawn) [Compound 71, 1,1,1-Trifluoro-3-[8-(3-trifluoromethoxy-phenyl)-3-(3-trifluoromethyl-phenyl)-2,3-dihydro-benzo[1,4]oxazin-4-yl]-propan-2-ol], the “% Inhibition @ 1 μM” value is reported as 2%.

With `OC(CN1c2cccc(-c3cccc(F)c3)c2OCC1c1cccc(OC(F)(F)C(F)F)c1)C(F)(F)F` (single isomer, unassigned) [Compound 67, 1,1,1-Trifluoro-3-{8-(3-fluoro-phenyl)-3-[3-(1,1,2,2-tetrafluoro-ethoxy)-phenyl]-2,3-dihydro-benzo[1,4]oxazin-4-yl}-propan-2-ol] the “% Inhibition @ 1 μM” value was 97% and 83% and the IC50 was 780 nM.

In the case of `OCCCC1COc2c(-c3cccc(OC(F)(F)F)c3)cccc2N1CC(O)C(F)(F)F` (stereo not drawn) [Compound 52, 3-[4-(3,3,3-Trifluoro-2-hydroxy-propyl)-8-(3-trifluoromethoxy-phenyl)-3,4-dihydro-2H-benzo[1,4]oxazin-3-yl]-propan-1-ol], the “% Inhibition @ 1 μM” value is reported as 13%.

`COCCCC1COc2c(-c3cccc(OC(F)(F)F)c3)cccc2N1CC(O)C(F)(F)F` (stereo not drawn) [Compound 55] showed an inhibition at 1 µM of 0%.

With `COc1cccc(C2COc3c(-c4cccc(OC(F)(F)F)c4)cccc3N2CC(O)C(F)(F)F)c1` (stereo not drawn) [Compound 100, 1,1,1-Trifluoro-3-[3-(3-methoxy-phenyl)-8-(3-trifluoromethoxy-phenyl)-2,3-dihydro-benzo[1,4]oxazin-4-yl]-propan-2-ol] the “% Inhibition @ 1 μM” value was 6%.

For `CC(=O)CN1c2cccc(-c3cccc(OC(F)(F)F)c3)c2OC[C@@H]1c1cccc(OC(F)(F)C(F)F)c1` [Compound 38, 2-Propanone, 1-[(3S)-2,3-dihydro-3-[3-(1,1,2,2-tetrafluoroethoxy)phenyl]-8-[3-(trifluoromethoxy)phenyl]-4H-1,4-benzoxazin-4-yl]-], the inhibition at 1 µM was 5%.

In the case of `CCOC(=O)N1c2cccc(-c3cccc(OC(F)(F)F)c3)c2OCC1c1cccc(OC(F)(F)C(F)F)c1` (stereo not drawn) [Compound 21, 3-[3-(1,1,2,2-Tetrafluoro-ethoxy)-phenyl]-8-(3-trifluoromethoxy-phenyl)-2,3-dihydro-benzo[1,4]oxazine-4-carboxylic acid ethyl ester], the inhibition at 1 µM is reported as 2%.

With `OC(CN1c2cccc(-c3cccc(OC(F)(F)F)c3)c2OCC1c1ccccc1)C(F)(F)F` (stereo not drawn) [Compound 96, 1,1,1-Trifluoro-3-[3-phenyl-8-(3-trifluoromethoxy-phenyl)-2,3-dihydro-benzo[1,4]oxazin-4-yl]-propan-2-ol] the “% Inhibition @ 1 μM” value was 1%.

With `O[C@@H](CN1c2cccc(-c3cccc(OC(F)(F)F)c3)c2OC[C@H]1c1cccc(OC(F)(F)C(F)F)c1)C(F)(F)F` [Compound 6, 4H-1,4-Benzoxazine-4-ethanol, 2,3-dihydro-3-[3-(1,1,2,2-tetrafluoroethoxy)phenyl]-8-[3-(trifluoromethoxy)phenyl]-α-(trifluoromethyl)-, (3R,αS)—] the inhibition at 1 µM was 14%.

`O[C@H](CN1c2cccc(-c3cccc(OC(F)(F)F)c3)c2OC[C@@H]1c1cccc(OC(F)(F)F)c1)C(F)(F)F` [Compound 10, 4H-1,4-Benzoxazine-4-ethanol, 2,3-dihydro-3,8-bis[3-(trifluoromethoxy)phenyl]-α-(trifluoromethyl)-, (3S,αR)—] showed an inhibition at 1 µM of 23%.

In the case of `C=CCC1COc2c(-c3cccc(OC(F)(F)F)c3)cccc2N1CC(O)C(F)(F)F` (stereo not drawn) [Compound 50, 3-[3-Allyl-8-(3-trifluoromethoxy-phenyl)-2,3-dihydro-benzo[1,4]oxazin-4-yl]-1,1,1-trifluoro-propan-2-ol], the “% Inhibition @ 1 μM” value is reported as 10%.

In the case of `O[C@@H](CN1c2cccc(-c3cc(C(F)(F)F)cc(C(F)(F)F)c3)c2OC[C@@H]1c1cccc(OC(F)(F)C(F)F)c1)C(F)(F)F` [Compound 78, 4H-1,4-Benzoxazine-4-ethanol, 2,3-dihydro-3-[3-(1,1,2,2-tetrafluoroethoxy)phenyl]-8-[3,5-bis(trifluoromethyl)phenyl]-α-(trifluoromethyl)-, (3S,αS)—], the inhibition at 1 µM is reported as 55%, the “% Inhibition @ 1 μM” value is reported as 62% and the IC50 is reported as 580 nM.

For `CC(C)(O)CN1c2cccc(-c3cccc(OC(F)(F)F)c3)c2OCC1c1cccc(OC(F)(F)C(F)F)c1` (stereo not drawn) [Compound 49, 2-Methyl-1-[3-[3-(1,1,2,2-tetrafluoro-ethoxy)-phenyl]-8-(3-trifluoromethoxy-phenyl)-2,3-dihydro-benzo[1,4]oxazin-4-yl]-propan-2-ol], the inhibition at 1 µM was 34%, the “% Inhibition @ 1 μM” value was 24% and the IC50 was 560 nM.
